Data on two compounds can be found in patent EP2607478A1, “Phenanthroline treated MSC” (Universiteit Twente, priority 2011, dated 2013).

In assay [1] the test system is immortalized MSC cell line. The assay can be described thus: Screen for hypoxia mimics with hypoxia response element reporter in immortalized MSC. Conditions: clonally expanded immortalized MSC cell line. The class given is cell-based. An excerpt: Because previous screening methods were based mostly on cancer cells and the results thereof can not necessarily be extrapolated to MSC, a novel screening method was developed, based on an immortalized MSC. Using this screening method, we quickly screened a large panel of potential compounds for effects on MSC. Such screening method is useful for screening a large panel of compound for their ability to modulate (i.e. increase or decrease) an angiogenic capacity of a MSC. […]
It is possible to use for instance an (immortalized) MSC and transfect it with a HRE-luciferase construct as described in Said et al (56) or with a 5HRE-ODD-luc construct described in Saha et al (57). Detection of transcription of the reporter gene is then easily achieved by measuring luciferase activity (luminescence) of the cells after contacting said MSC with the compound. […] As a consequence, reporter gene expression is increased, which can be detected, in case of luciferase, by measuring an increase in luminescence in these cells. Vice versa, decreased luminescence is indicative for a compound able to inhibit angiogenesis, which compound may subsequently be used for anti-angiogenic therapy, for instance in anti-tumor therapy. […]

The next assay concerns male C57/BL6 mice. Briefly: In vivo murine matrigel plug assay. Conditions: matrigel plug with DFO (150 uM) or PHE (200 uM), subcutaneous, 7 days, versus PBS. The method, then:
In vivo angiogenesis analysis was performed using a matrigel plug assay in male C57/BL6 mice (age 8 weeks)(Charles River). Growth factor reduced matrigel (0.5 ml) (BD Biosciences) was injected into the subcutaneous space on the dorsal side of mice on both the left and right flank. […] Mice were sacrificed 7 days post-implantation. Matrigel plugs were excised and processed for histological analysis. Paraffin sections (5 um) were stained with Hematoxylin, Phloxine and Saffron (HPS) or anti-CD31 (PECAM, Abcam, Cambridge, UK). Vascular ingrowth was scored in a double blinded fashion and quantified using the following method: every individual section was scored for the degree of ingrowth, using five different categories of ingrowth (1=minimal ingrowth at the border of the plug, 5=capillary ingrowth throughout the total plug), and the mean ingrowth score per group was defined (6 sections per plug, 7 mice per group). The endothelial nature of the infiltrating cells was confirmed by the CD31 staining,
Data was analyzed using one-way ANOVA followed by Tukey's multiple comparison's test (P<0,05). For the analysis of the ingrowth in the matrigel plug statistical analysis was performed using ANOVA and unpaired T test.

Consider `c1cnc2c(c1)ccc1cccnc12` [PHE, 1, 10-phenanthroline], for which the “ability to mimic hypoxia in MSCs” value in assay [1] is “able to mimic hypoxia in MSCs”. Also, the capillary ingrowth result in the assay with male C57/BL6 mice is reported as “significantly increased capillary ingrowth”.

For `CC(=O)N(O)CCCCCNC(=O)CCC(=O)N(O)CCCCCNC(=O)CCC(=O)N(O)CCCCCN` [DFO, reference compound], the capillary ingrowth entry with male C57/BL6 mice was “significantly increased capillary ingrowth”.
